Laboratory results as given in PubChem BioAssay AID1963431 (Molecular Pharmacology Branch, DTP, NCI, 2024).
Several values for one entry are separate records, joined by “and”; a condition that tells them apart may be missing. Equal values may be shown once.

Test system: Rh18 complex spheroid viability, percent test/control
Experiment: Anticancer human tumor Rh18 cell line growth inhibition [Asc];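 note: spheroids exposed to compound for 7 days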;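 for viability, T/C: 100% = DMSO vehicle control wells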
Conditions: for viability, T/C: stronger effect = lower value
Method: Multicellular complex tumor spheroid response to apoptosis pathway targeting inhibitors Alrizomadlin, Pelcitoclax, and Dasminapant in combination with a variety of drugs and investigational agents in selected tumor cell lines
The MDM2 inhibitor alrizomadlin, the Bcl-2/Bcl-xL inhibitor pelcitoclax, and the IAPs inhibitor dasminapant were evaluated both individually and in combination with standard of care and investigational anticancer small molecules within a complex spheroid model of solid tumors. . Complex spheroids include a stromal component modeled by human endothelial cells (HUVEC) and fibroblasts modeled by human mesenchymal stem cells (MSCs). The concentration ranges selected for each drug and investigational agent were based upon clinically achievable concentrations if the clinical Cmax of the agent was known.
Compounds. The drugs and investigational agents: alrizomadlin (APG-115; NSC831270), pelcitoclax (APG-1252; NSC835773), dasminapant (APG-1387;NSC834197), TAK-243 (NSC785004), copanlisib (NSC809693), olaparib (NSC753686), talazoparib (NSC767125), cobimetinib (NSC 768068), eltanexor (KPT-8602, NSC 794443), abemaciclib (NSC 768073), sotorasib (NSC818433), adagrasib (NSC 831453), MRTX-1133 (NSC 836407), Iadademestat (ORY1001, NSC 806812), and RMC-4630 (NSC839698), were obtained from the NCI Developmental Therapeutics Program Chemical Repository. The FDA-approved anticancer drug set is available from the Developmental Therapeutics Program at https://dtp.cancer.gov/organization/dscb/obtaining/available plates.htm. […] The stock solutions were prepared in dimethyl sulfoxide (DMSO, Sigma-Aldrich, St. Louis, MO, cat. D2650) at 800-fold the tested concentration and stored at -70 degrees C prior to their use. All drugs and investigational agents were tested over a range starting from a high concentration at or near the clinical Cmax and decreasing in half-log increments. If the clinical Cmax for an agent had not been determined, the highest concentration tested was 10 microM.
The patient-derived cancer (PDC) cell lines include five colon adenocarcinomas: 186277-243-T-J2-PDC, 616215-338-R-J1-PDC, 439559-082-T-J2-PDC, 463943-066-T-J2-PDC, and 519858-162-T-J1-PDC; three pancreatic carcinomas: 323965-272-R-J2-PDC, 521955-158-R6-J3-PDC, and 521955-158-R2-J5-PDC; two uterine sarcomas: 327498-152-R-J2-PDC and 993429-296-R-J1-PDC; two rhabdomyosarcomas: 755483-174-R-J1-PDC and 772245-204-R-J1-PDC; two soft tissue sarcomas: 126254-015-R-J1-PDC and 494315-158-R-J1-PDC; two malignant fibrous histiocytomas: 317291-083-R-J1-PDC and 596521-263-R-J1-PDC; two breast carcinomas: 171881-019-R-J1-PDC and 885512-296-R-J2-PDC; and one ovarian carcinoma: 6556581-035-R-J-PDC were obtained from the NCI PDMR, (https://pdmr.cancer.gov). The established cell lines HSSY-2 synovial sarcoma (RRID:CVCL 8719), SYO-1 synovial sarcoma (RRID:CVCL_7146), MPNST malignant peripheral neural sheath tumor were obtained from the Sloan Kettering Institute. The following established cell lines were purchased from the American Type Culture Collection (ATCC, Manassas, VA), Sor the received from the NCI repository:, PANC-1 pancreatic carcinoma (CRL-1469, RRID:CVCL_0480), OVCAR-5 ovarian carcinoma (RRID:CVCL_1628), OVCAR-8 ovarian carcinoma (RRID:CVCL_1629), , MCF-7 breast carcinoma (CRL-12584, RRID:CVCL_0031), MDA-MB-231 breast carcinoma (CRL-12532, RRID:CVCL_0062), NCI-H1876 small cell lung carcinoma (CRL-5902, RRID:CVCL_1503), NCI-H510A small cell lung carcinoma (HTB-184, RRID:CVCL_1565), NCI-H1417 (CRL-5869, RRID:CVCL_1469), and NCI-H196 small cell lung carcinoma (CRL-5823, RRID:CVCL_1509). Dr. Peter Houghton (Greehey Children's Cancer Research Institute, University of Texas Health Science Center, San Antonio, TX) provided Rh-18 rhabdomyosarcoma (RRID:CVCL_1659). Pooled donor human umbilical vein endothelial cells (HUVEC, Lonza, cat. CC-2519) and human mesenchymal stem cells (hMSC, Lonza, cat. PT-2501) were purchased from Lonza (Walkersville, MD).
Cell Culture. […]

With `NC(=O)C(=Cn1cnc(-c2cc(C(F)(F)F)cc(C(F)(F)F)c2)n1)c1cncnc1` the viability, T/C (compound 0.000949 µM) was 85.9% and 82.9% and 85.5%, the viability, T/C (compound 0.003 µM) was 93.2% and 85.7% and 79.2% and the viability, T/C (compound 0.00949 µM) was 92.8% and 63.3% and 67.5%. The viability, T/C (compound 0.03 µM) was 53.9% and 57.6% and 61%, the viability, T/C (compound 0.0949 µM) was 40.6% and 46.8% and 52.6% and the viability, T/C (compound 0.3 µM) was 32.3% and 31.4% and 34.7%. The IC50 (curve of compound) was 38.8 nM and 58.3 nM and 88.7 nM.
Work on `CCN1CCN(Cc2ccc(Nc3ncc(F)c(-c4cc(F)c5nc(C)n(C(C)C)c5c4)n3)nc2)CC1` + Cc1c(S(C)(=O)=O)c(-c2cc(F)cc(N3CCN(c4ccc(NS(=O)(=O)c5ccc(NC(CCN6CCC(C(=O)OCCCP(=O)(O)O)CC6)CSc6ccccc6)c(S(=O)(=O)C(F)(F)F)c5)cc4)CC3)c2)c(-c2ccc(Cl)cc2)n1C(C)C yielded an IC50 (curve of first compound, second compound 0.1 µM) of less than 3.16 nM, an IC50 (curve of first compound, second compound 0.316 µM) of less than 3.16 nM and an IC50 (curve of first compound, second compound 1 µM) of less than 3.16 nM. For the same compound, the IC50 (curve of first compound, second compound 3.16 µM) was less than 3.16 nM, the IC50 (curve of first compound, second compound 10 µM) was less than 3.16 nM and the viability, T/C (second compound 0.1 µM, first compound 0.00316 µM) was 12.9%. For the same compound, the viability, T/C (second compound 0.1 µM, first compound 0.01 µM) was 10.8%, the viability, T/C (second compound 0.1 µM, first compound 0.0316 µM) was 12.1% and the viability, T/C (second compound 0.1 µM, first compound 0.1 µM) was 10.3%. It also gave a viability, T/C (second compound 0.1 µM, first compound 0.316 µM) of 17.6%, a viability, T/C (second compound 0.1 µM, first compound 1 µM) of 16.5% and a viability, T/C (second compound 0.316 µM, first compound 0.00316 µM) of 9.27%. It also gave a viability, T/C (second compound 0.316 µM, first compound 0.01 µM) of 8.57%, a viability, T/C (second compound 0.316 µM, first compound 0.0316 µM) of 8.42% and a viability, T/C (second compound 0.316 µM, first compound 0.1 µM) of 8.33%. It also gave a viability, T/C (second compound 0.316 µM, first compound 0.316 µM) of 9.57%, a viability, T/C (second compound 0.316 µM, first compound 1 µM) of 13.1% and a viability, T/C (second compound 1 µM, first compound 0.00316 µM) of 7.77%. It also gave a viability, T/C (second compound 1 µM, first compound 0.01 µM) of 7.58%, a viability, T/C (second compound 1 µM, first compound 0.0316 µM) of 7.78% and a viability, T/C (second compound 1 µM, first compound 0.1 µM) of 7.11%. It also gave a viability, T/C (second compound 1 µM, first compound 0.316 µM) of 8.27%, a viability, T/C (second compound 1 µM, first compound 1 µM) of 11.2% and a viability, T/C (second compound 3.16 µM, first compound 0.00316 µM) of 5.69%. The viability, T/C (second compound 3.16 µM, first compound 0.01 µM) was 6.84%, the viability, T/C (second compound 3.16 µM, first compound 0.0316 µM) was 6.29% and the viability, T/C (second compound 3.16 µM, first compound 0.1 µM) was 6.51%. It also gave a viability, T/C (second compound 3.16 µM, first compound 0.316 µM) of 6.86%, a viability, T/C (second compound 3.16 µM, first compound 1 µM) of 8.35% and a viability, T/C (second compound 10 µM, first compound 0.00316 µM) of 4.28%. It also gave a viability, T/C (second compound 10 µM, first compound 0.01 µM) of 4.29%, a viability, T/C (second compound 10 µM, first compound 0.0316 µM) of 5.21% and a viability, T/C (second compound 10 µM, first compound 0.1 µM) of 7.08%. For the same compound, the viability, T/C (second compound 10 µM, first compound 0.316 µM) was 6.28% and the viability, T/C (second compound 10 µM, first compound 1 µM) was 10.4%.
